In brackets after ≈: the same amount, converted by molar mass.
Legend:
[1] = pH stability screen of rapamycin in 1:1 ethanol:water; type: physicochemical; conditions: 0.1 mg/mL in 1:1 ethanol:water, pH 3, 5, unbuffered; 1 week at 5, 25, 40° C. (FIG. 2)
Procedure: 20 mM citrate buffers were prepared at pH 3, 5 and 7. With the exception of the pH 7 buffer, these buffers were miscible in 50% ethanol. Rather than reduce the buffer concentration to obtain a higher pH, the third solution was prepared with unbuffered water. An Orion 710A+ pH meter with a Thermo Scientific electrode was used for pH measurement.

[2] = Solubility screening by gravimetric analysis; type: physicochemical
Procedure: Solubility screening was performed by gravimetric analysis. In a glass vial, known amounts of API were added to a known amount of solvent and the sample was rotated with a vial rotator (VWR) at room temperature. If the API completely dissolved, an additional known amount was added. The samples were rotated for at least 48 hours after the last API addition before determining the gravimetric result (i.e., greater than a % w/w or less than a % w/w).

[3] = Stability of rapamycin in solvents PG, TC, DMI; type: physicochemical; conditions: 0.2% w/w in DMI, 1 week at 5, 25, 40° C. (FIG. 3)
[4] = Antioxidant screen in Transcutol; type: physicochemical
Procedure: Since there was significant degradation in diethylene glycol monoethyl ether (TC) after 1 week, and TC can generate peroxides, it was selected as the solvent for the antioxidant screen. […] (1) No antioxidant; […] […] The 4-week data at 40° C. was used to calculate the main effects of the two antioxidants and their interaction (Box et al., 1978) for the assay values. The positive effect of BHA (+23.8) was twice the positive effect of Vit. E (+11.6).

physchem = conditions: thermodynamic from solid
Procedure: (§1) All solutions were buffered with 5 mM citrate buffer at pH 4.5.

[5] = Microscopic examination of rapamycin crystal growth; conditions: rectangular crystals in gels showing crystal growth
[6] = Saturation solubility in solvents and 10% co-solvent aqueous solutions
Procedure: as §1

CO[C@H]1C[C@@H]2CC[C@@H](C)[C@@](O)(O2)C(=O)C(=O)N2CCCC[C@H]2C(=O)O[C@H]([C@H](C)C[C@@H]2CC[C@@H](O)[C@H](OC)C2)CC(=O)[C@H](C)/C=C(\C)[C@@H](O)[C@@H](OC)C(=O)[C@H](C)C[C@H](C)/C=C/C=C/C=C/1C [Rapamycin, rapamycin]
rapamycin pH stability [1]: more stable at an acidic pH
Rapamycin solubility % w/w ([2]; Diethylene glycol monoethyl ether (TC)): >13 % w/w
Rapamycin solubility % w/w ([2]; Diisopropyl adipate): <1.0 % w/w
Rapamycin solubility % w/w ([2]; Dimethyl isosorbide (DMI)): >7 % w/w
Rapamycin solubility % w/w ([2]; Hexylene glycol): <1.0 % w/w
Rapamycin solubility % w/w ([2]; Isopropyl myristate): <0.1 % w/w
Rapamycin solubility % w/w ([2]; Light mineral oil): <0.3 % w/w
Rapamycin solubility % w/w ([2]; Medium chain triglycerides): <0.1 % w/w
Rapamycin solubility % w/w ([2]; Octyldodecanol): <1.0 % w/w
Rapamycin solubility % w/w ([2]; PEG 400): <1.5 % w/w
Rapamycin solubility % w/w ([2]; Propylene glycol (PG), room temperature): <0.75 % w/w
solvent compatibility (solution stability) [3]: most compatible with propylene glycol (PG) and least compatible with dimethyl isosorbide (DMI)
Rapamycin Assay (% of Initial) ([4]; 0.002% Vit. E, 25° C., week 1): 98.3 % of Initial
Rapamycin Assay (% of Initial) ([4]; 0.002% Vit. E, 25° C., week 4): 98.2 % of Initial
Rapamycin Assay (% of Initial) ([4]; 0.002% Vit. E, 40° C., week 1): 96.8 % of Initial
Rapamycin Assay (% of Initial) ([4]; 0.002% Vit. E, 40° C., week 2): 97.0 % of Initial
Rapamycin Assay (% of Initial) ([4]; 0.002% Vit. E, 40° C., week 4): 82.2 % of Initial
Rapamycin Assay (% of Initial) ([4]; 0.01% BHA, 25° C., week 1): 99.2 % of Initial
Rapamycin Assay (% of Initial) ([4]; 0.01% BHA, 25° C., week 4): 98.3 % of Initial
Rapamycin Assay (% of Initial) ([4]; 0.01% BHA, 40° C., week 1): 97.1 % of Initial
Rapamycin Assay (% of Initial) ([4]; 0.01% BHA, 40° C., week 2): 98.1 % of Initial
Rapamycin Assay (% of Initial) ([4]; 0.01% BHA, 40° C., week 4): 94.4 % of Initial
Rapamycin Assay (% of Initial) ([4]; 0.2% w/w in Transcutol, No Antioxidant, 25° C., week 1): 95.7 % of Initial
Rapamycin Assay (% of Initial) ([4]; BHA + Vit. E, 25° C., week 1): 98.8 % of Initial
Rapamycin Assay (% of Initial) ([4]; BHA + Vit. E, 25° C., week 4): 98.7 % of Initial
Rapamycin Assay (% of Initial) ([4]; BHA + Vit. E, 40° C., week 1): 96.9 % of Initial
Rapamycin Assay (% of Initial) ([4]; BHA + Vit. E, 40° C., week 2): 98.7 % of Initial
Rapamycin Assay (% of Initial) ([4]; BHA + Vit. E, 40° C., week 4): 96.2 % of Initial
Rapamycin Assay (% of Initial) ([4]; No Antioxidant, 25° C., week 4): 84.6 % of Initial
Rapamycin Assay (% of Initial) ([4]; No Antioxidant, 40° C., week 1): 87.3 % of Initial
Rapamycin Assay (% of Initial) ([4]; No Antioxidant, 40° C., week 2): 79.0 % of Initial
Rapamycin Assay (% of Initial) ([4]; No Antioxidant, 40° C., week 4): 60.8 % of Initial
solubility (physchem; 10% TC and 10% DMI aqueous solutions versus water, pH 4.5, aqueous with cosolvent or surfactant or cyclodextrin): 1.5 to 2 µg/mL (≈ 1.64 to 2.19 µM)
solubility (physchem; 10% propylene glycol (PG) aqueous solution, citrate buffered, pH 4.5, aqueous with cosolvent or surfactant or cyclodextrin): 2.9 µg/mL (≈ 3.17 µM)
solubility (physchem; pH 4.5, aqueous with cosolvent or surfactant or cyclodextrin): 5.2 µg/mL (≈ 5.69 µM)
solubility (physchem; water, citrate buffered, pH 4.5, aqueous buffer): 2.9 µg/mL (≈ 3.17 µM)
length of rapamycin crystals grown [5]: 25-100 microns
Rapamycin Solubility ([6]; 10% Diethylene Glycol Monoethyl Ether (TC), pH 4.5, 5 mM citrate): 4.6 µg/mL
saturation solubility ([6]; in TC): 15.5 % w/w

From patent publication US20200261427A1 (Al Therapeutics, Inc., priority 2019, published 2020)
